This is an account of results in publication PMC8333425, “Discovery of a dual Ras and ARF6 inhibitor from a GPCR endocytosis screen” (Nature Communications, 2021).

The assay deals with Rac/Cdc42. Briefly: Rac/Cdc42 BRET sensor (PAK-CRIB-RlucII / rGFP-CAAX), AT1R-mediated. The assay is classed as cell-based, human. From the text:
Since 21 inhibited both ERK1/2 and Akt activation by GPCRs and EGFR, we looked at a common target involved in both pathways. The small G protein Ras is an upstream regulator of both Ras-RAF-MEK-ERK and PI3K/Akt signaling pathways[35],[36]. Therefore, we explored 21’s ability to inhibit Ras activity using GST-Raf1-Ras-binding domain (RBD) in a pull-down assay. A reduction of 60% in GTP-bound Ras was noticed in pulled-down from cells treated with 21 and stimulated with either AT1R or EGFR, as compared to vehicle-treated cells (Fig. 4a, b). Complementary to this in vitro assay, we generated a Ras BRET assay, using the Raf-Ras binding domain tagged with RlucII (Raf1-RBD-RlucII) and the rGFP at the PM (rGFP-CAAX) (Supplementary Fig. 3c), to assess 21’s effects on Ras activation kinetics. […] Overexpression of either the active form of Ras (G12V) or SOS1 anchored at the PM (SOS-CAAX) produced a robust basal BRET signal that was no longer modulated by receptor activation (Supplementary Fig. 3d). […] 21’s potency to inhibit ARF6 and Ras is also consistent with its relative efficacy for inhibiting AT1R internalization and MAPK, respectively, when used at 50 μM (e.g., around 7 and 70 times the respective IC50s) (Figs. 2e and 3a). We also assessed if 21 was acting as a pan small G protein inhibitor by testing its effect on Rho and Rac/Cdc42. […] To assess Rac/Cdc42 activity, we generated a Rac/Cdc42 BRET sensor that consisted of the PAK-CRIB domain fused to RlucII (PAK-CRIB-RlucII) and the rGFP-CAAX (Supplementary Fig. 3e). PAK-CRIB, which binds to active Rac/Cdc42, was recruited to the PM upon AngII stimulation of cells and generated a robust BRET signal, which was blocked by the overexpression of the DN Rac1-T17N. Overexpression of the constitutively active Rac1-Q61L increased the basal BRET, which was no longer modulated by AT1R stimulation (Supplementary Fig. 3f).
HEK293SL cells were seeded at a density of 7.5 × 10^5 cells per 100-mm dish and 24 h later, transiently transfected as such. For receptor internalization experiments, cells were transfected with 0.12 μg AT1R-RlucII, B2R-RlucII, or β2AR-RlucII and 0.48 μg of either rGFP-CAAX (to assess removal from the PM) or rGFP-FYVE (to assess accumulation in the endosomes). For β-arrestin recruitment assays, cells were transfected with 0.48 μg of receptor-YFP along with 0.12 μg of β-arrestin-RlucII. For β-arrestin/AP-2 binding experiments, cells were transfected with 1 μg Flag-AT1R, 1 μg β2-Adaptin-YFP, and 0.12 μg β-arrestin2-RlucII. For G protein activation, cells were transfected with 3 μg of sp-Flag-AT1R along with either 4.5 μg of the Gαq-polycistronic BRET sensor or 0.24 μg of the Gαi3-RlucII and 0.6 μg of GFP10-Gγ2 and Gβ1 sensors or 0.12 μg PKN-RBD-RlucII and 0.48 μg of rGFP-CAAX. For PKC activation, cells were transfected with 3 μg of sp-Flag-AT1R and 0.18 μg of the PKC sensor. For GTPase activation experiments, cells were transfected with 1 μg Flag-AT1R, 0.48 μg of rGFP-CAAX, and either 0.12 μg of GGA3-PBD-RlucII, PAK-CRIB-RlucII or Raf-RBD-RlucII. For biosensor validation experiments, cells were additionally transfected with 500 ng Flag-K-Ras-WT, Flag-K-Ras-G12V, Flag-K-Ras-SOS-CAAX, HA-ARF6-WT, HA-ARF6-T27N, Myc-Rac1-WT, Myc-Rac1-Q61L or Myc-Rac1-T17N. For PI3K/Akt activation experiments, cells were transfected with 0.48 μg of rGFP-CAAX and 0.12 μg of Akt (PH)-RlucII. After 18 h of transfection, the media was replaced and cells were divided for subsequent experiments. Cells were detached and seeded onto poly-L-ornithine-coated 96-well flat white bottom plates (BrandTech Scientific) at a density of 2.5 × 10^4 cells per well in media. The next day, cells were washed once with Tyrode’s buffer (140 mM NaCl, 2.7 mM KCl, 1 mM CaCl2, 12 mM NaHCO3, 5.6 mM D-glucose, 0.5 mM MgCl2, 0.37 mM NaH2PO4, 25 mM HEPES, pH 7.4) and left in Tyrode’s buffer. […]

As to `CC(C)C(=O)N1CCN(c2ccc(NC(=O)c3cc4ccccc4o3)cc2Cl)CC1` [Compound 21], the “Rac/Cdc42 activation mediated by AT1R (BRET sensor)” value is listed as “failed to inhibit Rac/Cdc42 activation”. Moreover, the “Rac MEAN (Fig.4d)” value (Log [Comp 21] (M) -4) was determined as 98.9456. Further, where the note is “Log [Comp21] (M) -4.3”, the “Rac MEAN (Fig.4d)” value was 92.4505. In addition, where the note is “Log [Comp21] (M) -5”, the “Rac MEAN (Fig.4d)” value turned out to be 96.5837. The “Rac MEAN (Fig.4d)” value (Log [Comp21] (M) -5.3) is given as 100.464. Moreover, the “Rac MEAN (Fig.4d)” value (Log [Comp 21] (M) -6) stood at 102.348. For the same molecule, where the note is “Log [Comp21] (M) -6.3”, the “Rac MEAN (Fig.4d)” value is listed as 96.0354. In addition, the “Rac MEAN (Fig.4d)” value (Log [Comp 21] (M) -7) is reported as 96.1409.
